Assays:
[1] = tested on: hot flashes; assay: Randomized double-blind placebo controlled clinical trial of duloxetine for hot flashes (Example 1); details: Group 1: Duloxetine 60 mg QD + Placebo; eight to twelve weeks
Procedure: Patients eligible for a clinical trial include women who are either 1) naturally menopausal; or 2) pre-menopausal but had undergone bilateral oophorectomy surgery within four weeks prior to the commencement of the study. All the women in the study experience a minimum of thirty five hot flashes per week. […] The women or men are divided into two groups for a randomized double-blind placebo controlled study.
The groups receive drug or placebo as illustrated below:
Group 1: Duloxetine (60 mg QD)+Placebo
For three weeks both groups are administered placebo only. For eight to twelve weeks thereafter, each group is administered drug or placebo. Data is collected (numbers/severity of hot flashes experienced) from each participant during and at the end of the test period.

[2] = tested on: hot flashes; details: menopausal women (survivors of breast cancer) suffering from hot flashes; versus only 20% with placebo; cited from earlier work

## CNCCC(Oc1cccc2ccccc12)c1cccs1 (centres unmarked) [duloxetine, N-methyl-3-(1-naphthalenyloxy)-3-(2-thienyl)propanamine]
[1]
  incidence of hot flashes relative to the placebo groups (Groups 2 and 3): decrease

## COc1ccc(C(CN(C)C)C2(O)CCCCC2)cc1 (centres unmarked) [venlafaxine]
[2]
  treated menopausal women reporting a greater than 50% decrease in hot flash frequency: 45%

— patent US20040152733A1, “Duloxetine for treatment of hot flashes” (priority 2004, published 2004)
